According to PMC10539350 (Scientific Reports, 2023):
In brackets after ≈: the same amount, converted by molar mass. Where two headings read alike, the source gives them in different places.

Legend:
[1] = cited from earlier work
[2] = cited from earlier work; remark: listed apart in the source
[3] = IAM-HPLC affinity to phospholipids (CHI protocol); type: physicochemical; conditions: for log kIAM: 0.045*CHIIAM+0.42; for CHIIAM: IAM column, pH 7.4, ACN gradient
[4] = tested on: M. tuberculosis SIR Ciprofloxacin susceptible 168/22; assay: tuberculostatic activity, broth microdilution MIC (Alamar blue); type: cell-based, Mycobacterium tuberculosis; conditions: for MIC: Mycobacterium tuberculosis, read-out: Minimal inhibitory concentration; for activity in words: susceptible bacteria
M. tuberculosis H37Rv [5] = assay: as above; type: cell-based, Mycobacterium tuberculosis; conditions: for MIC: Mycobacterium tuberculosis, 504 h, M. tuberculosis H37Rv, read-out: Minimal inhibitory concentration; for activity in words: toward standard and susceptible strains
physchem = type: physicochemical; conditions: for CHIC18: C18 column, pH 7.4, ACN gradient; for chromatographic logD: pH 7.4
Excerpt: For HPLC analyses Prominence-1 LC-2030C 3D HPLC system (Shimadzu, Japan) equipped with a DAD detector and controlled by LabSolution system (version 5.90 Shimadzu, Japan) was used. Two different chromatography columns packed with surface-modified silica were utilized in this study: • Octyldecylsilane (C18 Hypersil GOLD™; 50 mm × 4.6 mm; 5.0 µm; Thermo Scientific, USA) • Immobilized artificial membrane (IAM.PC.DD2; 10 × 4.6 mm × 10.0 µm; Regis Technologies; USA).
Both columns were equipped with guard precolumn containing the same silica-modified bed as the main column. All measurements were carried out using the protocol proposed by Valko[19] and co-workers and adopted in our laboratory. Briefly, methods developed by Valko offered the determination of Chromatographic Hydrophobicity Index (CHI) indices using one gradient elution experiment. Ammonium acetate buffer (50 mM, pH 7.4) and acetonitrile (ACN) were used as the mobile phase at a 1.5 mL/min flow rate. The gradient range varies depending on the column type: • For C18 starting from 2 to 98% ACN in 5.25 min. The maximum concentration of ACN was applied for 1.75 min. • For IAM starting from 0 to 85% ACN in 5.25 min. The maximum concentration of ACN was used for 0.5 min.
During the chromatographic separation, the temperature was stable at 30 °C. […] The injected volume was 10 μL, whereas the concentration of solutes was at level 100 μg/mL. All studied compounds were dissolved in DMSO. Each chromatographic experiments run in triplicate. […] Retention times for studied molecules and reference standards are collected in supplementary materials, Tables S1, S2 and S3, respectively.
Next, the CHIC18 values were converted into lipophilicity indices CHI log D using Eq. […]

[6] = tested on: human immortal keratinocyte cell line (HaCaT); conditions: cited from earlier work
[7] = tested on: human colon cancer cells (HCT-116); conditions: cited from earlier work
[8] = tested on: Mycobacterium tuberculosis strains (H37Rv, 22/22, 168/22); assay: synergism-antagonism evaluation, summary over all strains; type: cell-based
M. tuberculosis H37Rv [9] = type: cell-based, Mycobacterium tuberculosis; conditions: derivative 6 at 1/2 MIC
[10] = calibration set on the IAM column, CHI index, Table S3 ref 19
[11] = calibration set on the C18 column, literature CHI index, Table S2 ref 19
[12] = determined in an earlier study ref 15
[13] = 21 days 37 °C, Middlebrook 7H9 + OADC

Structure (SMILES) | log kIAM [3] | CHIIAM [3] | MIC [4] [µg/mL] | MIC (M. tuberculosis H37Rv [5]; [13]) [µg/mL] | CHIC18 (physchem) | chromatographic logD (physchem) | also measured
CC(=O)Nc1ccccc1 [Acetanilidine] | – | – | – | – | – | – | CHIIAM [1, 10]: 11.5
CC(=O)c1ccccc1 [Acetophenone] | – | – | – | – | – | – | CHIC18 [2, 11]: 65,1; CHIIAM [1, 10]: 17.2
c1ccc2[nH]cnc2c1 [Benzimidazole] | – | – | – | – | – | – | CHIC18 [2, 11]: 34,3
CCCC(=O)c1ccccc1 [Butyrophenone] | – | – | – | – | – | – | CHIC18 [2, 11]: 87,5; CHIIAM [1, 10]: 32
O=C(O)c1cn(C2CC2)c2cc(N3CCNCC3)c(F)cc2c1=O [Ciprofloxacin, reference compound] | – | – | – | – | – | – | CHIC18 [2, 12]: 35.61; CHIIAM [1, 12]: 19.70; log kIAM [1, 12]: 1.31
CC1CCC(C(C)C)C(OCC(=O)N2CCN(c3cc4c(cc3F)c(=O)c(C(=O)O)cn4C3CC3)CC2)C1 (stereo not drawn) [Compound 1] | 2.47 | 45.54 | 256 (≈ 485 µM) | 32 | 112.24 | 4.43 | activity in words (M. tuberculosis H37Rv [5]): not active
CC1CCC(C(C)C)C(OC(=O)CN2CCN(c3cc4c(cc3F)c(=O)c(C(=O)O)cn4C3CC3)CC2)C1 (stereo not drawn) [Compound 2] | 2.53 | 46.88 | 2 (≈ 3.79 µM) | 0.5 | 127.44 | 5.22 | –
CC1CCC(C(C)C)C(OC(=O)CCN2CCN(c3cc4c(cc3F)c(=O)c(C(=O)O)cn4C3CC3)CC2)C1 (stereo not drawn) [Compound 3] | 2.65 | 49.56 | 2 (≈ 3.69 µM) | 2 | 129.99 | 5.36 | –
CC1CCC(C(C)C)C(OC(=O)CCCN2CCN(c3cc4c(cc3F)c(=O)c(C(=O)O)cn4C3CC3)CC2)C1 (stereo not drawn) [Compound 4] | 2.82 | 53.32 | 0.5 (≈ 0.9 µM) | 0.5 | 132.45 | 5.49 | –
CC1CCC(C(C)C)C(OC(=O)CCCCN2CCN(c3cc4c(cc3F)c(=O)c(C(=O)O)cn4C3CC3)CC2)C1 (stereo not drawn) [Compound 5] | 2.62 | 48.95 | 4 (≈ 7.02 µM) | 4 | 134.85 | 5.61 | –
CC(C)[C@@H]1CC[C@@H](C)C[C@H]1OC(=O)CCCCCN1CCN(c2cc3c(cc2F)c(=O)c(C(=O)O)cn3C2CC2)CC1 [Compound 6, 1‐cyclopropyl‐6‐fluoro‐7‐{4‐[6‐((1R,2S,5R)‐2‐isopropyl‐5‐methylcyclohexyloxy)‐6‐oxohexyl]piperazin‐1‐yl}‐4‐oxo‐1,4‐dihydroquinoline‐3‐carboxylic acid] | 2.74 | 51.47 | 1 (≈ 1.71 µM) | 1 | 139.48 | 5.86 | cytotoxic effect [6]: no cytotoxic effect; IC50 ([7]; HCT-116, MTT assay ref 10): 29.5 ± 2.1 µM; selectivity index ([7]; HCT-116 versus HaCaT ref 10): 3.4; FICI values, derivative 6 with Linezolid [8]: 1.0; interaction type from FICI [8]: indifference (key: synergism (FICI ≤ 0.5); indifference (> 0.5 FICI ≤ 4); antagonism (FICI > 4))
CC1CCC(C(C)C)C(OC(=O)CCCCOC(=O)c2cn(C3CC3)c3cc(N4CCN(CCCCC(=O)OC5CC(C)CCC5C(C)C)CC4)c(F)cc3c2=O)C1 (stereo not drawn) [Compound 7] | 2.92 | 55.54 | 256 (≈ 317 µM) | – | 170.54 | 7.49 | MIC (M. tuberculosis H37Rv [5]; […]): 256 µg/mL (≈ 317 µM); activity in words (M. tuberculosis H37Rv [5]): not active
CC1CCC(C(C)C)C(OC(=O)CCCCCOC(=O)c2cn(C3CC3)c3cc(N4CCN(CCCCCC(=O)OC5CC(C)CCC5C(C)C)CC4)c(F)cc3c2=O)C1 (stereo not drawn) [Compound 8] | 3.02 | 57.85 | 4 (≈ 4.78 µM) | 4 | 179.66 | 7.97 | –
Cc1ccc(C(C)C)c(OCC(=O)N2CCN(c3cc4c(cc3F)c(=O)c(C(=O)O)cn4C3CC3)CC2)c1 [Compound 9] | 2.38 | 43.58 | 256 (≈ 491 µM) | 256 | 129.41 | 5.33 | activity in words (M. tuberculosis H37Rv [5]): not active
Cc1ccc(C(C)C)c(OC(=O)CN2CCN(c3cc4c(cc3F)c(=O)c(C(=O)O)cn4C3CC3)CC2)c1 [Compound 10] | – | 42.88 | 1 (≈ 1.92 µM) | 1 | 111.26 | 4.37 | –
Cc1ccc(C(C)C)c(OC(=O)CCN2CCN(c3cc4c(cc3F)c(=O)c(C(=O)O)cn4C3CC3)CC2)c1 [Compound 11] | 2.42 | 44.44 | 1 (≈ 1.87 µM) | 1 | 113.95 | 4.52 | –
Cc1ccc(C(C)C)c(OC(=O)CCCN2CCN(c3cc4c(cc3F)c(=O)c(C(=O)O)cn4C3CC3)CC2)c1 [Compound 12] | 2.48 | 45.75 | 0.5 (≈ 0.91 µM) | 0.5 | 115.60 | 4.6 | –

Structure (SMILES) | log kIAM [3] | CHIIAM [3] | MIC [4] [µg/mL] | MIC (M. tuberculosis H37Rv [5]; [13]) [µg/mL] | CHIC18 (physchem) | chromatographic logD (physchem) | also measured
Cc1ccc(C(C)C)c(OC(=O)CCCCN2CCN(c3cc4c(cc3F)c(=O)c(C(=O)O)cn4C3CC3)CC2)c1 [Compound 13] | 2.53 | 46.96 | 2 (≈ 3.55 µM) | 2 | 117.28 | 4.69 | –
Cc1ccc(C(C)C)c(OC(=O)CCCCCN2CCN(c3cc4c(cc3F)c(=O)c(C(=O)O)cn4C3CC3)CC2)c1 [Compound 14] | 2.68 | 50.29 | 0.5 (≈ 0.866 µM) | 0.5 | 121.48 | 4.91 | –
Cc1ccc(C(C)C)c(OC(=O)CCCOC(=O)c2cn(C3CC3)c3cc(N4CCN(CCCC(=O)Oc5cc(C)ccc5C(C)C)CC4)c(F)cc3c2=O)c1 [Compound 15] | 2.47 | 45.54 | 64 (≈ 83.3 µM) | 64 | 135.98 | 5.67 | activity in words (M. tuberculosis H37Rv [5]): not active
Cc1ccc(C(C)C)c(OC(=O)CCCCCOC(=O)c2cn(C3CC3)c3cc(N4CCN(CCCCCC(=O)Oc5cc(C)ccc5C(C)C)CC4)c(F)cc3c2=O)c1 [Compound 16] | 2.64 | 49.33 | 4 (≈ 4.85 µM) | 4 | 144.84 | 6.14 | –
CC[C@@H](CO)NCCN[C@@H](CC)CO [Ethambutol, reference compound] | – | – | 0.5 (≈ 2.45 µM) | 0.25 | – | – | –
CCCCCCC(=O)c1ccccc1 [Heptanophenone] | – | – | – | – | – | – | CHIIAM [1, 10]: 45.7
CCCCCC(=O)c1ccccc1 [Hexanophenone] | – | – | – | – | – | – | CHIIAM [1, 10]: 41.8
NNC(=O)c1ccncc1 [Isoniazid, reference compound] | – | – | 0.5 (≈ 3.65 µM) | 0.0625 | – | – | –
CC(=O)NC[C@H]1CN(c2ccc(N3CCOCC3)c(F)c2)C(=O)O1 [Linezolid, reference compound] | – | – | 0.007 (≈ 0.0207 µM) | 0.003 | – | – | MIC for reference drug in the presence of derivative 6 (M. tuberculosis H37Rv [9]): 0.0015 µg/mL
CCCCCCCC(=O)c1ccccc1 [Octanophenone] | – | – | – | – | – | – | CHIIAM [1, 10]: 49.4
CC(=O)Nc1ccc(O)cc1 [Paracetamol] | – | – | – | – | – | – | CHIIAM [1, 10]: 2.9
CCC(=O)c1ccccc1 [Propiophenone] | – | – | – | – | – | – | CHIC18 [2, 11]: 77,5; CHIIAM [1, 10]: 25.9
CO[C@H]1/C=C/O[C@@]2(C)Oc3c(C)c(O)c4c(O)c(c(/C=N/N5CCN(C)CC5)c(O)c4c3C2=O)NC(=O)/C(C)=C\C=C\[C@H](C)[C@H](O)[C@@H](C)[C@@H](O)[C@@H](C)[C@H](OC(C)=O)[C@@H]1C [Rifampicin, reference compound] | – | – | 64 (≈ 77.8 µM) | 0.5 | – | – | activity in words [4]: poor activity
[H]/N=C(/N)N[C@H]1[C@H](O)[C@@H](O)[C@H](O[C@@H]2O[C@@H](C)[C@](O)(C=O)[C@H]2O[C@@H]2O[C@@H](CO)[C@H](O)[C@@H](O)[C@@H]2NC)[C@@H](N/C(N)=N\[H])[C@@H]1O [Streptomycin, reference compound] | – | – | 64 (≈ 110 µM) | 0.25 | – | – | activity in words [4]: poor activity
Cn1c(=O)c2[nH]cnc2n(C)c1=O [Theophylline] | – | – | – | – | – | – | CHIC18 [2, 11]: 18,4
CCCCC(=O)c1ccccc1 [Valerophenone] | – | – | – | – | – | – | CHIC18 [2, 11]: 96,2; CHIIAM [1, 10]: 37.3
